Reference: patent US8173133B2, “Acyl pseudodipeptides which carry a functionalized auxiliary arm” (OM Pharma, priority 1999, dated 2012)
Converted amounts (≈) assume the structure as drawn.

Legend:
bone marrow stem cells = assay: bone marrow stem cell proliferation (XTT); type: cell-based, C57/BL6 mice; settings: for Max amplitude: 7 days, XTT 492 nm; for Min amplitude: blank ± 3× standard deviation; for Max concentration: concentration at maximum amplitude; for EC50 conc: concentration corresponding to 50% of maximum amplitude; for Min concentration: lowest concentration inducing a significant proliferation
From the text: 6-week old male C57/BL6 mice are killed by CO2 inhalation. The hip, femur, tibia and hind leg bones are removed. The marrow is extracted from the bone lumen by injecting Dulbecco's Modified Eagle Medium (DH medium) from the end portions which had been excised. The stem cells are washed and suspended again in DH medium supplemented with 20% foetal calf serum (FCS) The cell concentration is adjusted to 500000 cells/ml.
Products previously dissolved in DH medium supplemented with 20% FCS, amino acids and antibiotics are serially diluted directly into a microtiter plate. The products are tested in triplicate and each microtiter plate includes a negative control containing plain medium. The final volume in each well is 100 μl.
100 μl of the cell suspension are added to diluted solutions of products and the cells are incubated for 7 days in an incubator at 37° C., under 8% CO2 and a moisture saturated atmosphere. Cell proliferation is determined by measuring the […] of a chromogenic substrate XTT (2,3-bis[2-methoxy-4-nitro-5-sulphophenyl]-2H-tetrazolium-5-carboxanilide) in mitochondria of viable cells.
At the end of the incubation period, 50 μl of the XTT substrate solution (1 mg/ml XTT+0.008 mg/ml phenazine methosulfate) are added to each well. After an 8 hour incubation period at 37° C. under 8% CO2 in a moisture saturated incubator, the microtiter plates are read with a spectrophotometer at 492 nm against a reference sample at 690 nm.
Results are expressed as mean value±standard deviation and plotted as a dose versus response curve. Values for a negative control composed of DH medium (mean±standard deviation) are also graphically shown.
From this dose versus response curve, 3 curve variables are computed:
Max: maximum curve amplitude and corresponding concentration
EC50: concentration corresponding to 50% of maximum amplitude
Min: lowest concentration inducing a significant proliferation corresponding to the blank±3× standard deviation value
Concentration values corresponding to EC50 and Min are determined from line segments joining different points on the curve.
If the curve has no plateau phase but an ascending configuration for the highest concentration being tested, a “>” sign is shown before Max and EC50 values.

[1] = tested on: human peripheral blood mononuclear cells; assay: α TNF production by human peripheral blood mononuclear cells; type: cell-based; settings: 18 hours
Summary of the method: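 Ficoll-isolated PBMC from 6 healthy donors (2×10^6 viable cells/ml, RPMI-1640, 10% FCS) exposed in triplicate for 18 h at 37 °C, 5% CO2 to compounds diluted 100-, 10- or 1-fold. Secreted TNF-α measured by chemiluminescent ELISA on 4-fold diluted supernatants against a 0.7–7000 pg/ml standard curve; values in pg/ml.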

[2] = tested on: CD83, CD86 surface markers of predendritic cells (DC-6); assay: dendritic cell differentiation test: CD83, CD86 surface marker expression; type: cell-based, human; settings: for CD86 % CD / CD86 Fluorescence: 10 μg/ml; for CD86 % CD: products redissolved in pyrogen-free water, % of dendritic cells; for CD86 Fluorescence: mean fluorescence value
Description: The ability of products of the invention to induce maturation of predendritic cells into dendritic cells was assessed. The following parameters were measured: FITC-Dextran conjugate take-up and expression of CD83, CD86 surface markers.
Mononucleated cells of peripheral blood are isolated from buffy coats of healthy donors. Purified monocytes by adherence selection are resuspended in RPMI-1640 medium containing 10% of foetal calf serum (FCS), GM-CSF and IL-4 (10 ng/ml) at a density of 1×10^6 cells/ml. Cells are divided into Petri Dishes (10×10^6 cells per dish) and cultured for 6 days with a change to fresh medium after 3 days. Cells thus obtained are called predendritic cells (DC-6). Maturation of predendritic cells into mature dendritic cells is achieved by incubating cells with diluted solutions of the products or LPS (positive control) for 3 more days (see product section below). At day 9 (DC-9), cells are harvested and analyzed for different indicators of dendritic cell maturation: assessment of CD83, CD86 surface marker expression as well as of their ability to take up FITC-Dextran conjugate. All these parameters are analyzed by an EPICS-XL-MCL model FACS (Coulter Immunology, Hialeah, […]).
Expression of surface markers is given as % of mean fluorescence of LPS-activated cells (positive control); FITC-Dextran conjugate take-up rate is calculated based on take-up of cells maintained in basic medium and is expressed in %.
Solutions are incubated at 37° C. for 20 minutes, subjected to vigorous stirring during 3 minutes and then diluted to 100 μg/ml in RPMI-1640 culture medium and used in diluted state at concentrations ranging from 10 μg/ml to 0.03 μg/ml. Reference Product: E. coli lipopolysaccharide (LPS, DIFCO, Detroit, Mich., U.S.A.), as a 5 mg/ml stock solution in PBS. An intermediate 100 μg/ml solution is prepared in RPMI 1640 culture medium. Concentrations of dilute solutions being tested range from 1 μg/ml to 0.03 μg/ml.
In another series of experiments, all acyl dipeptide-like compounds were freeze-dried and directly redissolved into pyrogen-free water. Different products as well as LPS control are tested at a concentration of 10 μg/ml. Results are given as % of dendritic cells and mean fluorescence value for dextran phagocytosis or CD86 surface marker expression.

Row | SMILES | Max amplitude (bone marrow stem cells) [O.D] | Min amplitude (bone marrow stem cells) [O.D] | Max concentration (bone marrow stem cells) [µg/mL] | EC50 conc (bone marrow stem cells) [µg/mL] | Min concentration (bone marrow stem cells) [µg/mL] | α TNF produced ([1]; product 1 μg/ml) [pg/mL] | α TNF produced ([1]; product 10 μg/ml) [pg/mL] | α TNF produced ([1]; product 100 μg/ml) [pg/mL] | CD86 % CD [2] [%] | CD86 Fluorescence [2] | concentration inducing an increase in expression of CD83 and CD86 surface markers ([2]; FIGS. 75 & 76)
1 | CCCCCCCCCCCC(=O)O[C@H](CCCCCCCCCCC)CC(=O)NC(CCOP(=O)(O)O)C(=O)NCCCC(COC(=O)CCCCC(O)CO)NC(=O)C[C@H](O)CCCCCCCCCCC (stereo partly drawn) [OM-197-FV6, 3-[(R)-dodecanoyloxytetradecanoylamino]-4oxo-5-aza-9-[(R)-3-hydroxytetradecanoylamino]-decan-1,10-diol 1-dihydrogenphate 10-(6,7-dihydroxyheptanoate)] | 1.52 | 0.80 | 50 | 5.7 (≈ 5.29 µM) | 1.60 | 0 | 104 | 88 | 62.9 | 4.9 | no effect at all
2 | CCCCCCCCCCCC(=O)O[C@H](CCCCCCCCCCC)CC(=O)N[C@H](CC(=O)O)C(=O)NCCC[C@H](COC(=O)CCCCCN)NC(=O)C[C@H](O)CCCCCCCCCCC [OM-197-MC-AC, N—[(R)-3-dodecanoyloxytetradecanoyl]-D-aspartic acid, α-N-{(4R)-5-(6-aminohexanoyloxy)-4-[(R)-3-hydroxytetradecanoylamino]pentyl}amide] | 1.62 | 0.80 | 50 | 31.0 (≈ 31.6 µM) | 0.92 | 12 | 140 | 144 | 67.4 | 5.2 | –
3 | CCCCCCCCCCCC(=O)O[C@H](CCCCCCCCCCC)CC(=O)N[C@H](CC(=O)N[C@@H](CCCCN)C(=O)O)C(=O)NCCC[C@H](COC(=O)CCCCCN)NC(=O)C[C@H](O)CCCCCCCCCCC [OM-197-Lys-AC] | > 2.02 | 0.80 | > 50 | > 14.6 | 0.90 | 232 | 184 | 256 | 93.5 | 6.9 | –
4 | CCCCCCCCCCCC(=O)O[C@H](CCCCCCCCCCC)CC(=O)N[C@H](CC(=O)NCCCN)C(=O)NCCC[C@H](CO)NC(=O)C[C@H](O)CCCCCCCCCCC [OM-197-AP, N—[(R)-3-dodecanoyloxytetradecanoyl]-D-aspartic acid, α-N-{(4R)-5-hydroxy-4-[(R)-3-hydroxy-tetradecanoylamino]pentyl}-amide β-N-(3-aminopropyl)amide] | 1.49 | 0.80 | 25 | 2.2 (≈ 2.38 µM) | 0.41 | 428 | 116 | 84 | 62.0 | 4.8 | –
